Measurements taken from publication PMC8095338 (Neuro-oncology Advances, 2021).
Values joined by “and” are separate entries in the source; they are usually repeats but may differ in a detail not shown here. Equal entries are not always repeated. Where two headings read alike, the source gives them in different places.

Assays:
Tissue PK, LC-MS/MS = assay type: in vivo, minipig; settings: minipig, po, 7.3 mg/kg
Experimental: WT (n = 8) and NF1 (n = 8) minipigs received a single human equivalent oral dose of 450 mg (7.3 mg/kg). Untreated WT (n = 4) and NF1 (n = 4) minipigs were also enrolled as controls. All animals were euthanized 2 h after drug administration. Tissue samples were collected from each animal at the same approximate locations and divided for analysis.
Selumetinib PK studies were performed in plasma, skin, sciatic nerve, optic nerve, and brain. Plasma isolation was performed as described in a previous study.[13] […] Tissues were harvested and immediately transferred to cryovials and stored at −80°C until analysis.
(§1) Standard curves and controls were generated using corresponding untreated tissue. Skin tissue was treated with collagenase, and all organ tissues were homogenized. Liquid extraction with ethyl acetate was then performed, followed by analysis. […] The chromatographic separation was performed as described.[13] Mass spectrometric detection was performed using multiple reaction monitoring in positive ionization mode. […] Ion source gases 1 and 2 were set at 50 and 50 psi, respectively; the curtain gas was at 20 psi and the collision gas at 4 psi. […] Data acquisition was performed with analyst 1.4.1 software (MDS-SCIEX).

[1] = Plasma PK study in WT and NF1 minipigs (LC-MS/MS, noncompartmental); assay type: in vivo, minipig; settings: for AUC: read-out: AUC0?∞
Experimental: Plasma isolation was performed as described in a previous study.[13] […] Tissues were harvested and immediately transferred to cryovials and stored at −80°C until analysis.
as §1
The PK parameters included AUC–time curve from time 0 to ∞ (linear up, log down), Cmax, Tmax, and T1/2.

[2] = female, minipig, po, 7.3 mg/kg, individual NF1 F minipigs, single oral 7.3 mg/kg
[3] = female, minipig, po, 7.3 mg/kg, individual WT F minipigs, single oral 7.3 mg/kg
[4] = individual NF1 F minipigs, single oral 7.3 mg/kg, 7.3 mg/kg
[5] = individual NF1 M minipigs, single oral 7.3 mg/kg, 7.3 mg/kg
[6] = individual WT F minipigs, single oral 7.3 mg/kg, 7.3 mg/kg
[7] = individual WT M minipigs, single oral 7.3 mg/kg, 7.3 mg/kg
[8] = minipig, po, 7.3 mg/kg, all 16 minipigs (WT and NF1), median (range), single oral 7.3 mg/kg
[9] = minipig, po, 7.4 mg/kg, NF1 minipigs, 7.4 mg/kg single oral dose, median (range)
[10] = minipig, po, 7.4 mg/kg, WT minipigs, 7.4 mg/kg single oral dose, median (range)

## Cn1cnc2c(F)c(Nc3ccc(Br)cc3Cl)c(C(=O)NOCCO)cc21 [selumetinib]
Tissue PK, LC-MS/MS; optic nerve, Selumetinib concentration in tissues, Optic nerve, Median (WT), WT minipigs n = 8, 2 h after single oral 7.3 mg/kg
  concentration at 2 h: 29 ng/g
Tissue PK, LC-MS/MS; selumetinib concentration, range over all tissues, cerebral cortex, optic nerve, sciatic nerve, skin, all minipigs, 2 h after single oral 7.3 mg/kg
  concentration at 2 h: 4 to 155 ng/g
Tissue PK, LC-MS/MS; sciatic nerve, Selumetinib concentration in tissues, Sciatic nerve, Median (All), all 16 minipigs, 2 h after single oral 7.3 mg/kg
  concentration at 2 h: 23 ng/g
Tissue PK, LC-MS/MS; sciatic nerve, Selumetinib concentration in tissues, Sciatic nerve, Median (NF1), NF1 minipigs n = 8, 2 h after single oral 7.3 mg/kg
  concentration at 2 h: 25 ng/g
Tissue PK, LC-MS/MS; sciatic nerve, Selumetinib concentration in tissues, Sciatic nerve, Median (WT), WT minipigs n = 8, 2 h after single oral 7.3 mg/kg
  concentration at 2 h: 26 ng/g
Tissue PK, LC-MS/MS; skin, Selumetinib concentration in tissues, Skin, Median (All), all 16 minipigs, 2 h after single oral 7.3 mg/kg
  concentration at 2 h: 34 ng/g
Tissue PK, LC-MS/MS; skin, Selumetinib concentration in tissues, Skin, Median (NF1), NF1 minipigs n = 8, 2 h after single oral 7.3 mg/kg
  concentration at 2 h: 56 ng/g
Tissue PK, LC-MS/MS; skin, Selumetinib concentration in tissues, Skin, Median (WT), WT minipigs n = 8, 2 h after single oral 7.3 mg/kg
  concentration at 2 h: 21 ng/g
[1]; all 16 minipigs (WT and NF1), median (range), single oral 7.3 mg/kg
  Clast: 22.7 ng/mL
[1]; female, minipig, individual WT F minipigs, single oral 7.3 mg/kg
  k el: 2.78e-05 s⁻¹
[1]; [2]
  half-life: 7.5 h
  AUC: 3560 ng·h/mL
[1]; female, minipig, po, 7.3 mg/kg, individual NF1 F minipigs, single oral 7.3 mg/kg, read-out: Cmax
  Cmax: 812 ng/mL
[1]; [3]
  half-life: 7.1 h
  AUC: 3680 ng·h/mL
[1]; female, minipig, po, 7.3 mg/kg, individual WT F minipigs, single oral 7.3 mg/kg, read-out: Cmax
  Cmax: 636 ng/mL
[1]; individual NF1 F minipigs, single oral 7.3 mg/kg
  Kel: 0.1 h⁻¹
[1]; [4]
  AUC0?∞: 5896 ng·h/mL and 5255 ng·h/mL and 4287 ng·h/mL
  Cmax: 678 ng/mL and 633 ng/mL and 571 ng/mL
  T1/2: 7.6 h and 8.0 h and 8.2 h
  Tmax: 2.0 h and 0.5 h
[1]; [5]
  AUC0?∞: 4116 ng·h/mL and 6092 ng·h/mL and 4344 ng·h/mL
  Cmax: 1480 ng/mL and 294 ng/mL and 766 ng/mL and 547 ng/mL
  T1/2: 7.3 h and 14.7 h and 10.6 h and 6.1 h
  Tmax: 2.0 h
[1]; [6]
  AUC0?∞: 5722 ng·h/mL and 5468 ng·h/mL and 5843 ng·h/mL
  Cmax: 573 ng/mL and 1040 ng/mL and 1020 ng/mL
  T1/2: 10.1 h and 6.7 h and 7.8 h
  Tmax: 2.0 h and 0.5 h
[1]; individual WT M minipigs, single oral 7.3 mg/kg
  Kel: 0.1 h⁻¹
[1]; [7]
  AUC0?∞: 3558 ng·h/mL and 9926 ng·h/mL and 5995 ng·h/mL and 5040 ng·h/mL
  Cmax: 266 ng/mL and 621 ng/mL and 861 ng/mL and 1270 ng/mL
  T1/2: 6.7 h and 10.6 h and 11.8 h
  Tmax: 5 h and 0.5 h and 2.1 h
[1]; male, minipig, individual NF1 M minipigs, single oral 7.3 mg/kg
  k el: 2.78e-05 s⁻¹
[1]; male, minipig, po, 7.3 mg/kg, individual NF1 M minipigs, single oral 7.3 mg/kg
  AUC: 7930 ng·h/mL
[1]; male, minipig, po, 7.3 mg/kg, individual NF1 M minipigs, single oral 7.3 mg/kg, read-out: Tmax
  Tmax: 1.1 h
[1]; male, minipig, po, 7.3 mg/kg, individual WT M minipigs, single oral 7.3 mg/kg
  half-life: 12.3 h
[1]; minipig, all 16 minipigs (WT and NF1), median (range), single oral 7.3 mg/kg
  k el: 2.78e-05 s⁻¹
[1]; [8]
  AUC(0-inf): 5360 ng·h/mL
  half-life: 7.9 h
[1]; minipig, po, 7.3 mg/kg, all 16 minipigs (WT and NF1), median (range), single oral 7.3 mg/kg, read-out: Cmax
  Cmax: 657 ng/mL
[1]; minipig, po, 7.3 mg/kg, all 16 minipigs (WT and NF1), median (range), single oral 7.3 mg/kg, read-out: Tmax
  Tmax: ~1 h
[1]; [9]
  AUC(0-inf): 4800 ng·h/mL
  half-life: 7.8 h
[1]; minipig, po, 7.4 mg/kg, NF1 minipigs, 7.4 mg/kg single oral dose, median (range), read-out: Cmax
  Cmax: 656 ng/mL
[1]; minipig, po, 7.4 mg/kg, NF1 minipigs, 7.4 mg/kg single oral dose, median (range), read-out: Tmax
  Tmax: 1.1 h
[1]; [10]
  AUC(0-inf): 5600 ng·h/mL
  half-life: 9 h
[1]; minipig, po, 7.4 mg/kg, WT minipigs, 7.4 mg/kg single oral dose, median (range), read-out: Cmax
  Cmax: 749 ng/mL
